{"source": "patent US7723467B2", "about": "“Antimicrobial compounds” (New England Medical Center Hospitals, Inc., priority 2000, dated 2010)", "assay_type_in_all_cases": "cell-based", "key": {"[1]": {"test_system": "Staphylococcus aureus NCTC 4163", "experimental": "(§1) The assays are standardized by using a predictable predetermined number of cells, and the lowest observed concentration of the agent that inhibits growth is defined as the minimum inhibitory concentration (MIC).\n(§2) Antimicrobial activity, specifically antibacterial activity, was assayed using cells of each of Staphylococcus aureus NCTC 4163, Escherichia coli NCTC 8196, Pseudomonas aeruginosa NCTC 6749, Proteus vulgaris NCTC 4635, and Enterococcus faecalis ATCC 19212. To determine the minimum inhibitory concentration (MIC), the microdilution broth method, well-known to one of ordinary skill in the art of microbiology, was used. Cells of each bacterial strain were collected in the logarithmic phase of growth, and resuspended in nutrient broth. The concentration of colony-forming units (CFU) per milliliter was quantified by measuring absorption of light at 600 nm (A600).\n(§3) Peptide samples were dissolved in nutrient broth (pH 7.0) and diluted serially. The sample solution (100 μl) was mixed with the diluted bacterial suspension (100 μl). Mixtures containing 105 bacterial CFU, and from 1% to 0.003% of test peptides, were incubated for 24 h at 37° C. […] The indolicidin antibacterial property with cells of S. aureus was used as a positive control reference."}, "[2]": {"test_system": "Escherichia coli NCTC 8196", "experimental": "as §1, §2, §3"}, "[3]": {"test_system": "Candida albicans NCTC 10231", "experimental": "Anti-fungal activity is similarly assayed, using log phase vegetative fungal cells.\n(§4) Antifungal activity was assayed using Candida albicans NCTC 10231 as a target fungus. Candida cells in the logarithmic phase of growth were suspended in dextrose broth medium at a density of 10^5 CFU/ml. A mixture of the sample solution (100 μl) and the fungal suspension (100 μl) was incubated for 24 h at 37° C."}, "[4]": {"test_system": "Proteus vulgaris NCTC 4635", "experimental": "as §1, §2, §3"}, "[5]": {"test_system": "microorganisms tested", "assay": "Antimicrobial activity across the microorganisms tested", "conditions": "compared with SP", "experimental": "as §2, §3, §4"}, "[6]": {"test_system": "Enterococcus faecalis ATCC 19212", "experimental": "as §1, §2, §3"}, "[7]": {"test_system": "Pseudomonas aeruginosa NCTC 6749", "experimental": "as §1, §2, §3"}, "[8]": {"test_system": "microorganism", "assay": "Mixing experiments of SP with SP antagonist"}, "[9]": {"conditions": "100% inhibition of growth, 24 h at 37° C., nutrient broth pH 7.0"}, "[10]": {"conditions": "dextrose broth, 24 h at 37° C., turbidity"}}, "note": "Like-named read-outs stand apart in the source and are kept apart here. Non-standard residues stand in square brackets, D forms with d. No end group written: not given here.", "data": [{"substance": "Ile-Leu-Pro-Trp-Lys-Trp-Pro-Trp-Trp-Pro-Trp-Arg-Arg-NH2 (ILPWKWPWWPWRR-NH2; listed as Homo sapiens) [Indolicidin, reference compound]", "values": [{"measurement": "Minimal Inhibitory Concentration MIC (%) S. aureus", "setting": "[1]; [9]", "value": 0.003, "unit": "%"}, {"measurement": "Minimal Inhibitory Concentration MIC (%) E. coli", "setting": "[2]; [9]", "value": 0.007, "unit": "%"}, {"measurement": "Minimal Inhibitory Concentration MIC (%) C. albicans", "setting": "[3]; [10]", "value": 0.015, "unit": "%"}]}, {"substance": "Arg-D-Pro-Lys-Pro-Gln-Gln-D-Trp-Phe-D-Trp-Leu-MetNH2 (R[dP]KPQQ[dW]F[dW]LM-NH2; N-terminus assumed; SMILES CSCC[C@H](NC(=O)[C@H](CC(C)C)NC(=O)[C@@H](Cc1c[nH]c2ccccc12)NC(=O)[C@H](Cc1ccccc1)NC(=O)[C@@H](Cc1c[nH]c2ccccc12)NC(=O)[C@H](CCC(N)=O)NC(=O)[C@H](CCC(N)=O)NC(=O)[C@@H]1CCCN1C(=O)[C@H](CCCCN)NC(=O)[C@H]1CCCN1C(=O)[C@@H](N)CCCNC(=N)N)C(N)=O; listed as Homo sapiens) [SEQ ID NO: 2]", "values": [{"measurement": "Minimal Inhibitory Concentration MIC (%) P. vulgaris", "setting": "[4]; [9]", "value": 0.13, "unit": "%"}, {"measurement": "MIC fold higher (weaker potency) on the other bacteria tested", "setting": "[5]", "value": "10- to 20 fold"}, {"measurement": "Minimal Inhibitory Concentration MIC (%) S. aureus", "setting": "[1]; [9]", "value": 0.13, "unit": "%"}, {"measurement": "Minimal Inhibitory Concentration MIC (%) E. faecalis", "setting": "[6]; [9]", "value": 0.13, "unit": "%"}, {"measurement": "Minimal Inhibitory Concentration MIC (%) P. aeruginosa", "setting": "[7]; [9]", "value": 0.13, "unit": "%"}, {"measurement": "Minimal Inhibitory Concentration MIC (%) E. coli", "setting": "[2]; [9]", "value": 0.13, "unit": "%"}, {"measurement": "potency against C. albicans relative to SP or bradykinin", "setting": "[3]", "value": "approximately 10 times"}, {"measurement": "activity compared with indolicidin", "setting": "[3]; cells of C. albicans", "value": "comparable to that of indolicidin"}, {"measurement": "Minimal Inhibitory Concentration MIC (%) C. albicans", "setting": "[3]; [10]", "value": 0.03, "unit": "%"}]}, {"substance": "Arg-Pro-Lys-Pro-Gln-Gln-Phe-Phe-Gly-Leu-MetNH2 [SEQ ID NO: 1]", "values": [{"measurement": "Minimal Inhibitory Concentration MIC (%) P. vulgaris", "setting": "[4]; [9]", "value": 0.13, "unit": "%"}, {"measurement": "Minimal Inhibitory Concentration MIC (%) S. aureus", "setting": "[1]; [9]", "value": 0.007, "unit": "%"}, {"measurement": "antimicrobial potency compared with indolicidin", "setting": "[1]; cells of S. aureus", "value": "equally potent to indolicidin"}, {"measurement": "blocking of the antimicrobial effect by the presence of SP antagonist", "setting": "[8]", "value": "not to be blocked"}, {"measurement": "Minimal Inhibitory Concentration MIC (%) E. faecalis", "setting": "[6]; [9]", "value": 0.13, "unit": "%"}, {"measurement": "Minimal Inhibitory Concentration MIC (%) P. aeruginosa", "setting": "[7]; [9]", "value": 0.13, "unit": "%"}, {"measurement": "Minimal Inhibitory Concentration MIC (%) E. coli", "setting": "[2]; [9]", "value": 0.06, "unit": "%"}, {"measurement": "antifungal properties against C. albicans", "setting": "[3]", "value": "found to have antifungal properties"}, {"measurement": "Minimal Inhibitory Concentration MIC (%) C. albicans", "setting": "[3]; [10]", "value": 0.25, "unit": "%"}]}, {"substance": "RPPGFSPFR [Bradykinin, reference compound]", "values": [{"measurement": "Minimal Inhibitory Concentration MIC (%) P. vulgaris", "setting": "[4]; NCTC 4635, 24 h, pH 7", "value": 0.5, "unit": "%"}, {"measurement": "Minimal Inhibitory Concentration MIC (%) S. aureus", "setting": "[1]; NCTC 4163, 24 h, pH 7", "value": 0.5, "unit": "%"}, {"measurement": "Minimal Inhibitory Concentration MIC (%) E. faecalis", "setting": "[6]; ATCC 19212, 24 h, pH 7", "value": ">1", "unit": "%"}, {"measurement": "Minimal Inhibitory Concentration MIC (%) P. aeruginosa", "setting": "[7]; NCTC 6749, 24 h, pH 7", "value": 1.0, "unit": "%"}, {"measurement": "Minimal Inhibitory Concentration MIC (%) E. coli", "setting": "[2]; NCTC 8196, 24 h, pH 7", "value": 0.5, "unit": "%"}, {"measurement": "Minimal Inhibitory Concentration MIC (%) C. albicans", "setting": "[3]; NCTC 10231, 24 h", "value": 0.25, "unit": "%"}]}]}
